Laboratory results as given in ChEMBL document CHEMBL1139202, “Inhibition of mycobacterial arylamine N-acetyltransferase contributes to anti-mycobacterial activity of Warburgia salutaris” (Bioorg Med Chem, 2007).

Test system: Mycobacterium tuberculosis
Test: Antimycobacterial activity against wild type Mycobacterium bovis BCG after 21 days
Type: functional, organism-based
Conditions: variant bovis BCG

CC(=O)O[C@@H]1C=C2C(=O)O[C@@H](O)[C@]2(O)[C@@]2(C)CCCC(C)(C)[C@H]12
Activity: Dose-dependent effect
